From US20170354592A1 (ASCENDIA PHARMACEUTICALS, LLC, priority 2016, published 2017)

Tests used:
β-adrenoceptor = conditions: cited from earlier work; for potency as a β-adrenoceptor antagonist versus Carvedilol: relative to carvedilol, Hoffman (2001), Tenero et al (2000)
[1] = cited from earlier work
[2] = Vital signs and adverse reactions after IV dose (non-invasive tail cuff); conditions: rats iv 2.5 mg/kg
Procedure: (§1) 15 cannulated and non-cannulated, 9 and 6 rats respectively, Sprague-Dawley® male rats were divided into 3 groups. […] Treatment was administered intravenously. During the experiment, rats were inspected twice daily for vitality and as needed after dosing and intermittently and vitals, including blood pressure, heart rate, and temperature, were recorded from the non-cannulated animals. Main vital signs were monitored prior to and at multiple time points after dose administration. Blood pressure and heart rate were measured using a non-invasive tail cuff system after a brief acclimation period. Blood samples (approximately 300-325 μL each) were collected from cannulated rats at each time point into tubes containing K2EDTA.
(§2) Following centrifugation at 4° C., the plasma was collected and stored at −80° C. The blood sampling time points were as follows: prior to (PRE) and approximately 0.25, 0.5, 1, 2, 3, 8, 10 and 24 hours after dose administration. Samples were collected via Jugular Vein Cannulas.

[3] = Single IV injection of carvedilol liposomes and free-carvedilol solution, plasma PK; conditions: rats, single iv 2.5 mg/kg
Procedure: as §1, §2

## COc1cc(O)ccc1OCCNCC(O)COc1cccc2[nH]c3ccccc3c12 (stereo not shown) [4-hydroxyphenyl-carvedilol]
β-adrenoceptor; more potent than carvedilol
  potency in β-blockade versus the parent compound: about 13 fold
β-adrenoceptor
  potency as a β-adrenoceptor antagonist versus Carvedilol: about 13 times

## COc1ccc(O)cc1OCCNCC(O)COc1cccc2[nH]c3ccccc3c12 (stereo not shown) [5-hydroxyphenyl-carvedilol]
β-adrenoceptor
  potency as a β-adrenoceptor antagonist versus Carvedilol: one-half

## Oc1ccccc1OCCNCC(O)COc1cccc2[nH]c3ccccc3c12 (stereo not shown) [desmethylcarvedilol]
β-adrenoceptor
  potency as a β-adrenoceptor antagonist versus Carvedilol: approximately 2.5 times

## (±)-[3-(9H-carbazol-4-yloxy)-2-hydroxypropyl][2-(2-ethoxyphenoxy)ethyl] amine [Carvedilol]
[1]
  pKa: 7.8
[2]; 1 Hour after dose
  Diastolic: 40
  HR: 363 Beats/min
  MAP: 69
  Temp: 99 ° F.
[2]; 15 min after dose
  Diastolic: 48
  HR: 354 Beats/min
  MAP: 73
  Temp: 98 ° F.
[2]; 30 min after dose
  Diastolic: 33
  HR: 360 Beats/min
  MAP: 60
  Temp: 99 ° F.
[3]; FIG. 3
  time after dose at which carvedilol was cleared from plasma: 3 h
[3]; mean
  AUC(0-T): 284 ng·h/mL
  AUC(INF): 291 ng·h/mL
  CL: 144.0 mL/min/kg
  Cmax: 354 ng/mL
  T-HALF: 0.52 h
  Tmax: 15 min
  Vss: 6.4 L/kg
